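Following 48 hours of exposure in 96-well plates, responses at five concentrations were used to interpolate endpoints linearly. Abbreviation: GI50, concentration required for 50% inhibition of growth.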 Activity calls are given as the source filed them. No stated cut-off is given here; in the data, active = GI50 up to about 1.1 µM and inactive = higher.
Experiments:
Assay in all cases: NCI tumour cell line growth inhibition, 48 h
NCI-H226 = test system: NCI-H226
SF-268 = test system: SF-268
SK-OV-3 = test system: SK-OV-3
SW-620 = test system: SW-620
SN12C = test system: SN12C
RXF 393 = test system: RXF 393
HCC 2998 = test system: HCC 2998
OVCAR-4 = test system: OVCAR-4
CAKI-1 = test system: CAKI-1
UACC-62 = test system: UACC-62
EKVX = test system: EKVX
SK-MEL-2 = test system: SK-MEL-2
T47D = test system: T47D
HOP-62 = test system: HOP-62
HOP-92 = test system: HOP-92
IGROV-1 = test system: IGROV-1
NCI-H460 = test system: NCI-H460
HL-60 = test system: HL-60
M14 = test system: M14
DLD-1 = test system: DLD-1

Measured: GI50

O=C1C(Cl)=C(N2CCN(CCOCCO)CC2)C(=O)c2ncccc21
inactive: NCI-H226 > 10 µM | SF-268 > 10 µM | SK-OV-3 > 10 µM | SW-620 > 10 µM | SN12C > 10 µM | RXF 393 3.69 µM | HCC 2998 > 10 µM | OVCAR-4 > 10 µM | CAKI-1 > 10 µM | UACC-62 > 10 µM | EKVX > 10 µM | SK-MEL-2 > 10 µM | T47D 2.23 µM | HOP-62 > 10 µM | HOP-92 1.63 µM | IGROV-1 > 10 µM | NCI-H460 > 10 µM | HL-60 3.35 µM | M14 > 10 µM

Cc1cccc(/N=C/c2ccc(N(CCC#N)S(=O)(=O)c3ccccc3)cc2C)c1
inactive: NCI-H226 20.7 µM | SF-268 58.9 µM | SK-OV-3 > 100 µM | SW-620 > 100 µM | SN12C > 100 µM | HCC 2998 > 100 µM | OVCAR-4 > 100 µM | CAKI-1 > 100 µM | UACC-62 26.1 µM | EKVX > 100 µM | DLD-1 > 100 µM | SK-MEL-2 > 100 µM | HOP-62 > 100 µM | HOP-92 33.3 µM | IGROV-1 > 100 µM | HL-60 21.9 µM | M14 > 100 µM

Cc1ccc(S(=O)(=O)C(C#N)c2nc3ccccc3nc2-n2cccn2)cc1 (configuration not stated)
inactive: NCI-H226 > 100 µM | SF-268 > 100 µM | SK-OV-3 > 100 µM | SN12C > 100 µM | HCC 2998 > 100 µM | OVCAR-4 > 100 µM | EKVX > 100 µM | DLD-1 > 100 µM | SK-MEL-2 > 100 µM | HOP-92 > 100 µM | IGROV-1 > 100 µM | NCI-H460 > 100 µM | HL-60 > 100 µM | M14 > 100 µM

Cc1ccc2cccc(-c3cccc4ccccc34)c2n1
inactive: NCI-H226 20.5 µM | SF-268 25.5 µM | SK-OV-3 23.7 µM | SW-620 25.2 µM | SN12C 25.6 µM | RXF 393 13.6 µM | HCC 2998 12.1 µM | OVCAR-4 24.9 µM | CAKI-1 26.6 µM | UACC-62 19.5 µM | EKVX 21.4 µM | SK-MEL-2 15 µM | T47D 15.8 µM | HOP-62 25.2 µM | HOP-92 12.6 µM | IGROV-1 26.5 µM | NCI-H460 27.5 µM | HL-60 3.33 µM | M14 17.2 µM

Cc1nc2c(=O)n(-c3ccccc3)c3ccccc3c2o1
inactive: NCI-H226 > 100 µM | SF-268 > 100 µM | SK-OV-3 > 100 µM | SW-620 > 100 µM | SN12C > 100 µM | RXF 393 > 100 µM | HCC 2998 > 100 µM | OVCAR-4 > 100 µM | CAKI-1 > 100 µM | UACC-62 > 100 µM | EKVX > 100 µM | SK-MEL-2 > 100 µM | T47D > 100 µM | HOP-62 > 100 µM | HOP-92 > 100 µM | IGROV-1 > 100 µM | NCI-H460 > 100 µM | HL-60 > 100 µM | M14 > 100 µM

Cc1ccc(S(=O)(=O)N/N=C(\c2nc3ccc([N+](=O)[O-])cc3nc2O)C(O)c2ccccc2Cl)cc1 (configuration not stated)
inactive: NCI-H226 > 100 µM | SF-268 > 100 µM | SK-OV-3 > 100 µM | SW-620 > 100 µM | SN12C > 100 µM | HCC 2998 > 100 µM | OVCAR-4 > 100 µM | CAKI-1 > 100 µM | UACC-62 86.9 µM | EKVX > 100 µM | DLD-1 > 100 µM | SK-MEL-2 > 100 µM | HOP-62 > 100 µM | HOP-92 > 100 µM | IGROV-1 > 100 µM | NCI-H460 > 100 µM | HL-60 27.5 µM | M14 82.8 µM

O=C1CS/C(=N/N=C/c2cn(Cc3ccc(Cl)cc3Cl)c3ccccc23)N1
inactive: NCI-H226 > 100 µM | SF-268 30.8 µM | SK-OV-3 > 100 µM | SW-620 27.5 µM | SN12C 19.5 µM | RXF 393 24.9 µM | HCC 2998 32.2 µM | OVCAR-4 21.8 µM | CAKI-1 39.1 µM | UACC-62 91.2 µM | EKVX 20.9 µM | SK-MEL-2 23.6 µM | T47D 23.1 µM | HOP-62 27.6 µM | HOP-92 28.2 µM | IGROV-1 73.3 µM | NCI-H460 56.4 µM | HL-60 > 100 µM | M14 36.5 µM

COC(=O)CCSC(=O)Nc1ccccc1Cl
inactive: NCI-H226 > 100 µM | SF-268 > 100 µM | SW-620 > 100 µM | SN12C > 100 µM | HCC 2998 > 100 µM | OVCAR-4 > 100 µM | CAKI-1 > 100 µM | UACC-62 > 100 µM | EKVX > 100 µM | DLD-1 > 100 µM | SK-MEL-2 > 100 µM | HOP-62 > 100 µM | NCI-H460 > 100 µM | HL-60 63.1 µM | M14 > 100 µM

O=C(N/C(=C\c1cccc([N+](=O)[O-])c1)c1nc2c3c(ccc2[nH]1)C(=O)c1ccccc1C3=O)c1ccccc1
inactive: NCI-H226 14 µM | SF-268 17.8 µM | SK-OV-3 6.78 µM | SW-620 45.5 µM | SN12C 28 µM | CAKI-1 7.18 µM | UACC-62 55.2 µM | EKVX 12.8 µM | DLD-1 12.2 µM | SK-MEL-2 35 µM | HOP-62 37.8 µM | HOP-92 32.4 µM | NCI-H460 24.7 µM | M14 45.5 µM

Cc1ccc(S(=O)(=O)NC(=O)Nc2nc[nH]n2)cc1
inactive: NCI-H226 > 100 µM | SF-268 > 100 µM | SK-OV-3 > 100 µM | SW-620 > 100 µM | SN12C > 100 µM | RXF 393 > 100 µM | HCC 2998 > 100 µM | OVCAR-4 > 100 µM | CAKI-1 > 100 µM | UACC-62 > 100 µM | EKVX > 100 µM | SK-MEL-2 > 100 µM | T47D > 100 µM | HOP-62 > 100 µM | HOP-92 > 100 µM | IGROV-1 > 100 µM | NCI-H460 > 100 µM | HL-60 > 100 µM | M14 > 100 µM

COC(=O)Nc1nc2ccccc2[nH]1 [CARBENDAZIM]
inactive: NCI-H226 10.4 µM | SF-268 > 51.3 µM | SK-OV-3 3.44 µM | SW-620 3.57 µM | SN12C 21.9 µM | RXF 393 17.5 µM | HCC 2998 5.37 µM | OVCAR-4 > 47.4 µM | CAKI-1 11.4 µM | UACC-62 4 µM | EKVX > 52.7 µM | SK-MEL-2 17.8 µM | T47D 9.51 µM | HOP-62 11.1 µM | HOP-92 > 100 µM | IGROV-1 8.17 µM | NCI-H460 3.36 µM | HL-60 4.26 µM | M14 4.69 µM

From ChEMBL document CHEMBL1201862, “PubChem BioAssay data set” (2004)
